The text below walks through data of patent publication US7368287B2, “Use of L-α-lysophosphatidylcholine to obtain the differentiation of monocytes into mature dendritic cells in vitro” (Biomerieux, priority 2002, dated 2008).

The test system of assay [1] is PAF receptor. In words: CD86 expression in presence of PAF or of the PAF antagonist BN52021. In kind it is cell-based, human. To be noted: differentiation induced by oxidized LDLs; BN52021 added on 5th day. On the procedure: The phenotype of the “control” and “LPC” cells is analyzed by flow cytometry on a FACSCalibur (Becton Dickinson, Francklin Lakes, N.J., USA) using FITC (fluorosceine isothiocyanate)-conjugated anti-CD14, anti-HLA-DR and anti-CD80 and PE (phycoerythrin)-conjugated anti-CD1a, anti-CD83, anti-CD86 and anti-CD40 (Beckman Coulter). According to the state of the art, monocytes preferentially have a CD14+ CD1a− phenotype, immature dendritic cells preferentially have a CD14− CD1a+CD86− phenotype, and mature dendritic cells preferentially have a CD14− CD1a intermediate—CD86+ phenotype.
Thus, a solution of PAF (Sigma, 5 μM) was added to the culture medium on the 5th day of monocyte differentiation. The expression of CD86 by the “control” cells and by the “LPC” cells, obtained in the presence or in the absence of PAF, was analyzed according to the protocol described in example 2, and the results are given in table 9.
Thus, a solution of the PAF antagonist BN52021 (Biomol, Plymouth Meeting, USA, 100 μM) was added to the culture medium on the 5th day of monocyte differentiation. The expression of CD86 by the “control” and “LPC” cells, obtained in the presence or in the absence of BN52021, was analyzed according to the protocol described in example 2, and the results are given in table 10.

Assay [2] has as its system PPARδ. Description: PPAR binding activity by gel shift on nuclear proteins of treated monocytes. It counts as cell-based, human. Conditions: Table 7; ciglitizone 50 μM 15 minutes before LPC 40 μM for 2 hours; control = 100%. As for the experimental part:
(§1) Next, the inventors investigated the transcription factors involved in the maturation process induced by LPC. In order to determine whether PPARs are involved in the LPC-induced maturation, the ability of the two transcription factors PPARγ and PPARδ to bind was analyzed using the gel shift technique. 3 isotypes of PPAR nuclear receptors (peroxisome proliferator-activated receptor) exist: α, γ and δ. PPARγs are the targets for molecules of the thiazolidinedione class, such as ciglitizone, used in the treatment of type II diabetes. PPARδs have a broader expression and can be repressors of PPARγs. The monocytes undergoing differentiation were incubated for two hours with a solution of LPC (40 μM) (“LPC” cells). “Control” cells are also obtained in the absence of LPC in the culture medium. After having harvested the cells, the nuclear proteins were extracted with the Nuclear extract Kit (Sigma). The nuclear proteins were then brought into contact with a ratioactively labeled probe containing a response element recognized by PPARs. […] The PPAR binding activity was determined by measuring the intensity of these bands. These activities are expressed as a percentage with respect to the “control” cells. […]
(§2) The activity of the PPARγ and PPARδ transcription factors was measured in these cells by the gel shift technique, as described above.
(§3) INTRALIPID® regulates PPARs in vitro. […] The cells were harvested after 1 h, 2 h or 8 h of incubation with INTRALIPID®, the nuclear proteins were extracted and the activity of PPARγ and PPARδ was determined as described in example 6.
(§4) Secondly, a solution of INTRALIPID® (50 μg/ml of phospholipids) was added to the culture medium on the 5th day of monocyte differentiation, 15 minutes before the addition of a solution of LPC (40 μM) (“LPC+Intralipid” cells). […] The cells were harvested after 2 h of incubation, the nuclear proteins were extracted and the activity of PPARγ and PPARδ was determined as described in example 6.
For orientation: Mobility shift assays separate free from complexed probe on a gel.

In assay [3] the target is T1, PPARγ (Homo sapiens, UniProt P37231).
T1 construct: After having harvested the cells, the nuclear proteins were extracted with the Nuclear extract Kit (Sigma); endogenous in cells; host or cells: monocytes undergoing differentiation into dendritic cells (nuclear extract)
T1 sequence (P37231 1-505): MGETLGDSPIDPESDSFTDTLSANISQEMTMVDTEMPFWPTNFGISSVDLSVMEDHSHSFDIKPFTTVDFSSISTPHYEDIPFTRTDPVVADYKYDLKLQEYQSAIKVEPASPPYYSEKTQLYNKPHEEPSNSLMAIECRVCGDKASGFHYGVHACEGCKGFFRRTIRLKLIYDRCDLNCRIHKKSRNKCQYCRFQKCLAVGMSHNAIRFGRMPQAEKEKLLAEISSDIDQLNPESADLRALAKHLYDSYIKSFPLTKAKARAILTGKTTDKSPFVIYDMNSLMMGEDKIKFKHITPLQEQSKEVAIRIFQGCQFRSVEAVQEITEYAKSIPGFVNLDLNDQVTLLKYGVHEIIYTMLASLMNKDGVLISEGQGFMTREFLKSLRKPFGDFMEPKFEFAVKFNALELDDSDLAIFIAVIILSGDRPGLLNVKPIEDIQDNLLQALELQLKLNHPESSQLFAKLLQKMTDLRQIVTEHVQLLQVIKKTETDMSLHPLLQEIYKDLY
The description is as above. It counts as cell-based. Conditions: Table 7; ciglitizone 50 μM 15 minutes before LPC 40 μM for 2 hours; control = 100%. On the procedure: as §1, §2, §3, §4

Assay [4] relates to BALB/c mice. In words: Migration of skin dendritic cells to draining lymph nodes (FITC uptake). In kind it is in vivo, mouse. Conditions: auricular and maxillary lymph nodes after 24 h; LPC 0.1 M on ear skin 10 minutes before FITC 1.5%. On the procedure: This fluorescent label is taken up by the dendritic cells of the skin. After 24 h, the auricular and maxillary lymph nodes are removed and the cells are placed in suspension. The cell suspension is enriched in dendritic cells by metrizamide (Sigma) gradient centrifugation. The cells are labeled with an antibody (Pharmingen) which recognizes Major Histocompatibility Complex (MHC) […] molecules and analysis by flow cytometry makes it possible to quantify the percentage of large cells (dendritic cells) expressing the MHC class II molecules and containing FITC. These cells are presenting cells which have taken up the FITC in the periphery and have migrated to the lymph nodes.

In assay [5] the test system is BALB/c mice. In words: Proliferation of HEL-specific T cells of popliteal lymph nodes after immunization (thymidine incorporation). In kind it is in vivo, mouse. On the procedure:
LPC stimulates the T response specific for a co-injected soluble antigen. LPC dissolved in PBS (250 or 500 nmol in 50 μl) is mixed with hen egg lysozyme (HEL, 50 μg) and this mixture is injected into the plantar foot pad of BALB/c mice. After 7 days, the popliteal lymph nodes are removed and their cells are restimulated in triplicate in vitro, in a culture medium containing 30 μM of HEL antigen, or in the absence of HEL. After 3 days, the T lymphocyte proliferation is measured by incorporation of triturated thymidine for 16 h.
INTRALIPID® blocks the inflammation and the immune response induced by LPC, in vivo. In this example, 3 batches of BALB/c mice are immunized against the hen egg lysozyme (HEL) antigen by injection of 50 μl of solution into the plantar foot pad. The “HEL” control batch receives 50 μg of HEL, the “HEL+Intralipid” batch receives a mixture of INTRALIPID® (45 μl) and of 50 μg of HEL (5 μl of a solution at 10 mg/ml). The “HEL+LPC” batch receives 50 μg of HEL with 350 nmol of LPC dissolved in PBS. The “HEL+LPC+Intralipid” batch receives 50 μg of HEL mixed with 350 nmol of LPC dissolved in 45 μl of INTRALIPID®. After 24 hours, the thickness of the foot pads is measured using a micrometer, and compared with the measurement taken before injection. The difference in thickness is proportional to the intensity of the inflammation.
Seven days after the injection, the popliteal lymph nodes are removed and their cells are restimulated in vitro in triplicate, in a culture medium containing 10 μM of HEL or in the absence of HEL. After 3 days, the proliferation of HEL-specific T lymphocytes is measured by incorporation of triturated thymidine for 16 h.
On the technique in general: Incorporation of labelled thymidine or its analogues reports DNA synthesis.

Where [6] appears, read: Table 18, HEL 50 μg, LPC 350 nmol, Intralipid 45 μl, seven days after injection.

With `CC1C(=O)OC2C(O)C34C5CC(C(C)(C)C)C36C(OC(=O)C6O)OC4(C(=O)O5)C12O` (centres unmarked) [BN52021, reference compound], the “Inhibition of the action of the oxidized LDLs” value in assay [1] is 100%.
Take `CC1(COc2ccc(CC3SC(=O)NC3=O)cc2)CCCCC1` (centres unmarked) [Ciglitizone, reference compound]: the PPARδ binding activity in assay [2] turned out to be 106%. Moreover, the PPARγ binding activity in assay [3] was 237%.
As for `O=C1OC2(c3ccc(O)cc3Oc3cc(O)ccc32)c2ccc(N=C=S)cc21` [FITC], the “FITC+ dendritic cells” value in assay [4] turned out to be 7.1 ± 1.7%.
Take “HEL: hen egg lysozyme, soluble antigen; antigen-only group”: the “Restimulation with HEL (30 μM)” value in assay [5] (Table 13, immunization with HEL 50 μg alone) is given as 5370 ± 1983 CPM. The “Proliferation in the absence of HEL” value is listed as 1315 ± 275 CPM in assay [5] (Table 13, immunization with HEL 50 μg alone, day 7 lymph node cells) and 370 ± 212 cpm in assay [5] (setting [6]). Besides, the “Restimulation with HEL (10 μM)” value in assay [5] (setting [6]) came out at 738 ± 408 cpm.
